# Legend:
# [1] = target: T1, GST-Nrb331-453 and [35S]-labeled A1R202-326 (A1R-neurabin interaction) (Homo sapiens, UniProt Q9ULJ8); experiment: In vitro GST competition pull-down; assay type: binding; conditions: peptide 0.1 μg/μl
# T1 construct: made in house
# T1 sequence (Q9ULJ8 331-453): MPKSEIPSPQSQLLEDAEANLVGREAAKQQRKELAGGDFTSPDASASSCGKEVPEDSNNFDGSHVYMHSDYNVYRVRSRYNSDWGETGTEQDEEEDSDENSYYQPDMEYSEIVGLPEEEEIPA
# Text: FIG. 5A is a competition pull-down assay testing the abilities of A1R 3i loop (3iL) and C-tail (CT) peptides in blocking the interaction between GST-Nrb331-453 and [^35S]-labeled A1R202-326. […] A1R202-326 pulled down by GST-Nrb331-453. Free probe represents 1/10 of the input in each reaction.
# FIG. 5B is a competition pull-down assay testing the abilities of A1R 3i loop (3iL) and C-tail (CT) peptides in blocking the interaction between GST-Nrb331-453 and [^35S]-labeled A1R202-326. In the graphical representation, quantitation of the amount of [^35S] A1R202-326 pulled down by GST-Nrb331-453 is shown. Free probe represents 1/10 of the input in each reaction. * represents p<0.05 vs. BSA control by one-way ANOVA Dunnett's multiple comparisons test. N=3/group.
# Preparation of GST fusion proteins, synthesis of [^35S]-labeled in vitro translated probes, and pull-down assays were performed as described previously (See, for example, Chen Y, Booth C, Wang H, Wang R X, Terzi D, Zachariou V, et al. Effective Attenuation of Adenosine A1R Signaling by Neurabin Requires Oligomerization of Neurabin. Mol Pharmacol. 2017; 92 (6): 630-9; and Chen Y, Liu Y, Cottingham C, McMahon L, Jiao K, Greengard P, et al. Neurabin scaffolding of adenosine receptor and RGS4 regulates anti-seizure effect of endogenous adenosine. J Neurosci. 2012, 32 (8): 2683-95). […]
# [2] = tested on: hippocampal CA3-CA1 synapses; experiment: fEPSP recording in acute hippocampal slices; assay type: cell-based, mice
# [3] = tested on: primary hippocampal neurons; experiment: Glutamate-induced cell death in primary hippocampal neurons; assay type: cell-based, mice; conditions: 100 μM glutamate plus 10 μM R-PIA
# Method: Primary hippocampal culture was performed as described previously (Chen Y, Liu Y, Cottingham C, McMahon L, Jiao K, Greengard P, et al. Neurabin scaffolding of adenosine receptor and RGS4 regulates anti-seizure effect of endogenous adenosine. J Neurosci. 2012, 32 (8): 2683-95). […] In brief, hippocampal neurons were cultured in 24-well plates for 13-14 days in vitro and treated with (1) vehicle, (2) 100 μM glutamate alone, (3) 100 μM glutamate plus 10 μM R-PIA, (4) 100 μM glutamate, 10 μM R-PIA, plus 30 μM LY294002, for 30 min at 37° C. Neurons were then washed twice, and incubated with regular growth medium at 37° C. for an additional 24 hrs. Neurons were stained with 4 μM calcein-AM and 4 μM EthD-1 in DPBS and mounted for imaging under a fluorescence microscope.
# [4] = tested on: Akt phosphorylation at Thr 308; experiment: A1R-mediated Akt activation in primary hippocampal neurons (Western blot); assay type: cell-based, mice
# Method: Primary hippocampal neurons derived from WT or neurabin deficiency (Ppp1r9a^−/−) mice were treated with R-PIA at the indicated concentrations. Representative blots of phospho-Akt (pAkt, Thr308) are shown.
# Primary hippocampal neurons derived from WT or neurabin deficiency (Ppp1r9a^−/−) mice were treated with R-PIA at the indicated concentrations. Quantitation of phospho-Akt (pAkt, Thr308) is shown. *** represents p<0.001 by two-way ANOVA. N=4/group.
# WT and Ppp1r9a^−/− neurons were stimulated with 1 μM R-PIA for the indicated time durations. Representative blots of pAkt are shown.
# WT and Ppp1r9a^−/− neurons were stimulated with 1 μM R-PIA for the indicated time durations. Quantitation of pAkt is shown. * represents p<0.05; ** represents p<0.01; **** represents p<0.0001 by two-way ANOVA for multiple comparisons. N=4/group. Data are shown as mean±SEM.
# [5] = tested on: PTZ-induced seizures; experiment: PTZ-induced seizure in WT and neurabin null mice; assay type: in vivo
# Method: (§1) Induction and evaluation of seizure were performed as described previously (See, for example, Chen Y, Liu Y, Cottingham C, McMahon L, Jiao K, Greengard P, et al. Neurabin scaffolding of adenosine receptor and RGS4 regulates anti-seizure effect of endogenous adenosine. J Neurosci. 2012, 32 (8): 2683-95). Ten to twelve week-old male mice were injected (i.p.) with kainate (Sigma) at 20 or 25 mg/kg (dissolved in saline), together with or without DPCPX (Sigma, 0.5 mg/kg in saline) or yohimbine (Sigma, 0.5 mg/kg in saline). Seizure severity was scored by trained observers blind to genotype and/or treatment. The severity of seizure behaviors was scored on a scale of 0 to 7, with 0 representing normal behavior and 7 representing death (see, for example, Yang D D, Kuan C Y, Whitmarsh A J, Rincon M, Zheng T S, Davis R J, et al. Absence of excitotoxicity-induced apoptosis in the hippocampus of mice lacking the Jnk3 gene. Nature. 1997, 389 (6653): 865-70; and Cottingham C, Chen Y, Jiao K, and Wang Q. The antidepressant desipramine is an arrestin-biased ligand at the alpha (2A)-adrenergic receptor driving receptor down-regulation in vitro and in vivo. J Biol Chem. 2011, 286 (41): 36063-75). To induce seizures with pentylenetetrazole (PTZ), mice were injected (i.p.) with PTZ at 40 mg/kg (dissolved in saline), with or without 8-Cyclopentyl-1,3-dipropylxanthine (DPCPX). Seizure severity was scored every 4 min for 30 min.
# [6] = tested on: kainate-induced seizures; experiment: Kainate-induced seizure in WT and Rgs4-/- mice; assay type: in vivo
# Method: as §1, with “To induce seizures with pentylenetetrazole (PTZ), mice were injected (i.p.) with PTZ at 40 mg/kg (dissolved in saline), with or without 8-Cyclopentyl-1,3-dipropylxanthine (DPCPX).” left out
# [7] = tested on: kainate-induced seizures; experiment: Kainate-induced seizure in mice given peptide (icv or intranasal); assay type: in vivo
# Method: as §1, with “To induce seizures with pentylenetetrazole (PTZ), mice were injected (i.p.) with PTZ at 40 mg/kg (dissolved in saline), with or without 8-Cyclopentyl-1,3-dipropylxanthine (DPCPX).” left out, “min. […]” for “min.”
# [8] = tested on: spontaneous epileptic spikes in APP/PS1 mice; experiment: EEG recording of spontaneous epileptic activity in APP/PS1 mice; assay type: in vivo; conditions: intranasal peptide plus i.p. DPCPX
# Method: Implantation of electrodes for EEG recordings was performed under isoflurane anesthesia (4.5% for induction, approximately 2% for maintenance). In brief, 1 mm stainless steel electrodes (P1 Technologies, Roanoke, VA) were implanted into the primary somatosensory cortex at 1.8, 0.02, 1 (AP, ML, DV), and reference electrodes anterior to the bregma were implanted subdurally through small holes drilled in the skull. These electrodes were held in place with Dental cement kit (Stoelting), C&B Metabond Quick Adhesive Cement System (Parkell). The ground electrode was sutured in the cervical paraspinous area. […] EEG activity was recorded for 20 hrs using Biopac Systems amplifiers (Biopac Systems EEG100C) and AcqKnowledge 4.2 EEG Acquisition and analyzed with the Reader Software (Biopac Systems).
# A total of 150 hrs of data was analyzed, 54 hrs for nTg mice and 96 hrs for APP/PS1 transgenic mice. Six hrs of recording were analyzed for each animal. […] When p-operator algorithm detected a spike, all signals were visually inspected to include in the analysis only those that were true positives in order to avoid non-epileptic artifacts caused by electrical noise (e.g., grooming) during spike selection. Spectral content of EEG signals were calculated using short-time Fourier transform (FFT).
compound,measurement,setting,value
"3i loop peptide: peptide carrying the sequence of the A1R 3i loop (aa202-235) (EVFYLIRKQLNKKVSASSGDPQKYYGKELKIAKS; UniProt P30542 202-235, looked up, fragment)",direct interaction of A1R (aa202-326) with Nrb331-453,[1],no effect
"CC(Cc1ccccc1)Nc1ncnc2c1ncn2[C@@H]1O[C@H](CO)[C@@H](O)[C@H]1O (single isomer, unassigned; (-)) [R-PIA, (−)-N6-(2-Phenylisopropyl) adenosine]",inhibition of baseline transmission,"[2]; WT mice slices, 100 nM",about 75%
same,inhibition of fEPSP,"[2]; WT mice slices, 10, 30, 100 nM",dose-dependently inhibited
same,inhibition of fEPSP vs WT slices,"[2]; slices from Ppp1r9a-/- or Rgs4-/- mice, same concentration (10 nM, FIG. 2E-F)",significantly higher level of inhibition
same,effect on glutamate-induced neuronal death,[3],protective effect
same,Akt phosphorylation at Thr 308,[4]; WT neurons,dose-dependent increase
same,Akt activation over time,"[4]; WT neurons, 1 μM R-PIA",desensitized after 30 min stimulation
same,phospho-Akt levels at 30 min,"[4]; neurons lacking neurabin, 1 μM R-PIA",no apparent reduction
same,Akt phosphorylation vs WT neurons,"[4]; neurons lacking neurabin, same dose",significantly higher level of Akt phosphorylation
"CCCn1c(=O)c2[nH]c(C3CCCC3)nc2n(CCC)c1=O [DPCPX, 8-Cyclopentyl-1,3-dipropylxanthine]",PTZ-induced seizure severity on co-treatment with DPCPX,"[5]; WT and neurabin null mice, vs PTZ alone",continued to progress to a much more severe level
same,death after combined treatment with PTZ and DPCPX,"[5]; both genotypes (WT, Ppp1r9a-/-)",more than 55%
same,effect of A1R blockade on seizure severity and mortality rate,"[6]; Rgs4-/- mice, kainate plus DPCPX, to a level similar to WT",increased the seizure severity and mortality rate
same,anti-seizure effect of A1R-CT on co-treatment with DPCPX,[7]; icv peptide,no longer observed
same,anti-seizure effect of TAT-A1R-CT peptide on co-treatment with DPCPX,[7]; intranasal peptide,abolished
same,effect of TAT-A1R-CT on epileptic activities with DPCPX,[8],failed to reduce epileptic activities
"C1CCc2nnnn2CC1 [PTZ, pentylenetetrazole]",PTZ-induced lethality within 40 minutes,"[5]; WT mice, PTZ alone",About 10%
C=C(C)[C@H]1CN[C@H](C(=O)O)[C@H]1CC(=O)O [kainate],mortality after kainate,"[6]; WT mice, kainate 20 mg/kg",over 40%
"A1R-CT: peptide carrying the sequence of the A1R C-tail (aa293-326), without TAT fusion (QKFRVTFLKIWNDHFRCQPAPPIDEDLPEERPDD; UniProt P30542 293-326, looked up, fragment)",direct interaction of A1R (aa202-326) with Nrb331-453,[1],markedly reduced
